Consider 2 compounds from PMC5844530, “Fosmetpantotenate (RE-024), a phosphopantothenate replacement therapy for pantothenate kinase-associated neurodegeneration: Mechanism of action and efficacy in nonclinical models” (PLoS ONE, 2018).

Several values for one entry are separate records, joined by “and”; a condition that tells them apart may be missing. Equal values may be shown once.

Data set [1] can be described thus: Pharmacokinetics in whole blood, cynomolgus monkeys. The conditions noted are these: for % Parent AUCAll: Cynomolgus monkey, 300 mg/kg PO, metabolite AUCall/Parent AUCall x 100.
Procedure: The whole blood samples (0.5 mL) were collected into syringes that were prefilled with 2.5 mL of ice-cold 0.1% formic acid in acetonitrile. The volume ratio of the whole blood to 0.1% formic acid in acetonitrile was 1/5 (v/v). Samples were frozen (-70°C) until analyzed by LC-MS/MS.
Standard curves and quality control (QC) samples were prepared fresh on the day of analysis by serial dilution of the standard mixture in quenched whole blood (1 part of blood to 5 parts of 0.1% formic acid in acetonitrile) and centrifuged. […] The frozen study samples were thawed in an ice/water bath and centrifuged. Supernatant (50 μL) from standards, QC samples, and study samples was transferred to a 96-well plate and dried completely under nitrogen. The dried residues were reconstituted with 100 μL of 0.1% formic acid in water containing internal standard (5 ng/mL of ^15N/^13C3-RE-024-02) and analyzed by LC-MS/MS.
LC-MS/MS analysis for blood pharmacokinetic samples: Samples were analyzed using an Agilent 1100 binary pump (Agilent Technologies, Santa Clara, CA, USA), connected to an AB Sciex API 6500 mass spectrometer (SCIEX, Framingham, MA, USA). An electrospray ionization source was used, scanning in the positive mode. […] The chromatography column was a Varian Metasil AQ 120–5 C18 column, 5 μm, 50 x 2.00 mm (Part No. A0530050X020) at ambient temperature, with a 0.5 mL/min flow rate and a 20 μL injection volume. Mobile phase (A) consisted of 0.1% formic acid in water; while mobile phase (B) consisted of 0.1% formic acid in acetonitrile:water (9:1, v/v).
Quantitation of in vivo samples: Peak areas were integrated using Analyst software (AB Sciex, Concord, Ontario, Canada). […] Calibration standards (at a minimum 7 per curve) were fit by linear regression with (1/x^2) weighting. QC samples were used (triplicate) at 3 concentrations for all tandem mass spectrometry (MS/MS) runs.
Pharmacokinetic calculations: PK analysis was performed using Phoenix WinNonlin®, Build 6.3.0.395 (Certara, Princeton, NJ, USA) using a non-compartmental model (PO dose = model 200 for extravascular dosing). […] Post-dose concentrations below the limit of quantitation (BLQ) were omitted from calculation.
Data set [2] in a line: Pharmacokinetics in whole blood, Sprague-Dawley rats. The conditions noted are these: Sprague-Dawley rat, metabolite AUCall/Parent AUCall x 100.
Data set [3] is described as follows: Pharmacokinetics in whole blood, CD-1 mice. The conditions noted are these: for % Parent AUCAll: CD1 mouse, metabolite AUCall/Parent AUCall x 100; for Whole Blood Conc. of compound 3: CD-1 mice; for concentration at 2 h / concentration at 8 h / concentration at 0.5 h: male, CD-1, mouse, whole blood, po, Whole Blood Conc. of compound 3, CD-1 mice.

As for `CC1(C)COP(=O)(O)O[C@H]1C(=O)NCCC(=O)O` [Compound 3], the “% Parent AUCAll” value in data set [1] is recorded as 9%; in data set [2] (300 mg/kg PO), 4,130%; in data set [2] (700 mg/kg PO) it was 209%; in data set [3] (100 mg/kg PO), 8,900%; in data set [3] (300 mg/kg PO) it was 18,900%; in data set [3] (700 mg/kg PO), 1,990%. Also, in data set [1] (cynomolgus monkey, whole blood, po, 300 mg/kg, Concentration of compound 3 in whole blood, cynomolgus monkeys, single oral 300 mg/kg fosmetpantotenate, 0.25 hr, LLOQ 2.13 nM), the concentration at 0.25 h was determined as 5.33 nM. This compound also registered a concentration at 4 h in data set [1] (cynomolgus monkey, whole blood, po, 300 mg/kg, Concentration of compound 3 in whole blood, cynomolgus monkeys, single oral 300 mg/kg fosmetpantotenate, 4 hr, LLOQ 2.13 nM) of 432 nM. The concentration at 8 h in data set [1] (cynomolgus monkey, whole blood, po, 300 mg/kg, Concentration of compound 3 in whole blood, cynomolgus monkeys, single oral 300 mg/kg fosmetpantotenate, 8 hr, LLOQ 2.13 nM) is 619 nM; in data set [3] (100 mg/kg, single 100 mg/kg RE-024-02 PO, LLOQ 6 ng/mL) it was 6.1 ng/mL; in data set [3] (100 mg/kg, single 100 mg/kg RE-024-02 PO, LLOQ 21.3 nM), 21.6 nM; in data set [3] (300 mg/kg, single 300 mg/kg RE-024-02 PO, LLOQ 6 ng/mL), 7.6 ng/mL; in data set [3] (300 mg/kg, single 300 mg/kg RE-024-02 PO, LLOQ 21.3 nM), 26.9 nM. Besides, the “Concentration of compound 3 in whole blood” value in data set [1] (cynomolgus monkeys, single oral 300 mg/kg fosmetpantotenate, 0.25 hr, LLOQ 2.13 nM, 300 mg/kg) came to 3.41 nM; in data set [1] (cynomolgus monkeys, single oral 300 mg/kg fosmetpantotenate, 4 hr, LLOQ 2.13 nM, 300 mg/kg), 654.2 nM; in data set [1] (cynomolgus monkeys, single oral 300 mg/kg fosmetpantotenate, 8 hr, LLOQ 2.13 nM, 300 mg/kg) it was 508.25 nM. Besides, the “Whole Blood Conc. of compound 3” value in data set [3] (single 100 mg/kg RE-024-02 PO, 4 hr, LLOQ 6 ng/mL) was “BQL”; in data set [3] (single 100 mg/kg RE-024-02 PO, 4 hr, LLOQ 21.3 nM) it was “BQL”; in data set [3] (single 700 mg/kg RE-024-02 PO, 0.5 hr, LLOQ 6 ng/mL, 700 mg/kg), 126 ng/mL and 156 ng/mL and 189 ng/mL; in data set [3] (single 700 mg/kg RE-024-02 PO, 0.5 hr, LLOQ 21.3 nM, 700 mg/kg), 448.1 nM and 554.8 nM and 672.1 nM; in data set [3] (single 700 mg/kg RE-024-02 PO, 2 hr, LLOQ 6 ng/mL, 700 mg/kg), 67.2 ng/mL and 69.6 ng/mL and 72 ng/mL; in data set [3] (single 700 mg/kg RE-024-02 PO, 2 hr, LLOQ 21.3 nM, 700 mg/kg) it was 239 nM and 247.5 nM and 256 nM. Moreover, the concentration at 2 h in data set [3] (100 mg/kg, single 100 mg/kg RE-024-02 PO, 2 hr, LLOQ 6 ng/mL) is 6.7 ng/mL; in data set [3] (100 mg/kg, single 100 mg/kg RE-024-02 PO, 2 hr, LLOQ 21.3 nM) it was 23.7 nM; in data set [3] (700 mg/kg, single 700 mg/kg RE-024-02 PO, 2 hr, LLOQ 6 ng/mL) it was 48.2 ng/mL; in data set [3] (700 mg/kg, single 700 mg/kg RE-024-02 PO, 2 hr, LLOQ 21.3 nM), 172 nM. Moreover, the concentration at 0.5 h in data set [3] (700 mg/kg, single 700 mg/kg RE-024-02 PO, 0.5 hr, LLOQ 6 ng/mL) came to 162 ng/mL; in data set [3] (700 mg/kg, single 700 mg/kg RE-024-02 PO, 0.5 hr, LLOQ 21.3 nM) it was 576 nM.

Turning to `COC(=O)[C@H](C)NP(=O)(OCC(C)(C)[C@@H](O)C(=O)NCCC(=O)O)Oc1ccccc1` (stereo partly shown) [Compound 4], the “% Parent AUCAll” value in data set [1] is on record as 301%; in data set [2] (300 mg/kg PO) it was 2,820%; in data set [2] (700 mg/kg PO) it was 849%; in data set [3] (100 mg/kg PO), 3,180%; in data set [3] (300 mg/kg PO) it was 12,600%; in data set [3] (700 mg/kg PO) it was 10,500%. This compound also registered a concentration at 0.083 h in data set [1] (cynomolgus monkey, in vivo, po, 300 mg/kg, Concentration of compound 4 in whole blood, cynomolgus monkeys, single oral 300 mg/kg fosmetpantotenate, 0.083 hr, sum of diastereomers, LLOQ 1.30 nM) of 13.2 nM. In data set [1] (cynomolgus monkey, in vivo, po, 300 mg/kg, Concentration of compound 4 in whole blood, cynomolgus monkeys, single oral 300 mg/kg fosmetpantotenate, 2 hr, sum of diastereomers, LLOQ 1.30 nM), this compound returned a concentration at 2 h of 5070 nM. The same compound registered a concentration at 4 h in data set [1] (cynomolgus monkey, in vivo, po, 300 mg/kg, Concentration of compound 4 in whole blood, cynomolgus monkeys, single oral 300 mg/kg fosmetpantotenate, 4 hr, sum of diastereomers, LLOQ 1.30 nM) of 665 nM. For the same compound, the “Concentration of compound 4 in whole blood” value is 8.08 nM in data set [1] (cynomolgus monkeys, single oral 300 mg/kg fosmetpantotenate, 0.083 hr, sum of diastereomers, LLOQ 1.30 nM, 300 mg/kg); 5694.67 nM in data set [1] (cynomolgus monkeys, single oral 300 mg/kg fosmetpantotenate, 2 hr, sum of diastereomers, LLOQ 1.30 nM, 300 mg/kg); 600.1 nM in data set [1] (cynomolgus monkeys, single oral 300 mg/kg fosmetpantotenate, 4 hr, sum of diastereomers, LLOQ 1.30 nM, 300 mg/kg).
